Assay results taken from article PMC6917776, “Discovery of a chemical probe for PRDM9” (Nature Communications, 2019).

Tests used:
HCC1143 = experiment: CelltiterGlo viability cell assay; assay type: cell-based; conditions: HCC1143, 6 day
Description: (§1) Supplementary Figure 13. […] Viability of
(§2) (a) Multiple Myeloma lines and (b) Breast Cancer cell lines following 3 or 6 days treatment with […]
(§3) manufacturer’s instructions as described in the Supplementary methods. Data are normalized to DMSO control. N=3 biological replicates, +/- SEM. Source data are provided as a Source Data […]
(§4) CelltiterGlo viability cell assay
(§5) Cells were seeded in 96 well plates at per-well densities of 10000 (MDA-MB436, ATCC-HTB130), 15000 (8226, kind gift from Rodger Tiedemann, Princess Margaret Cancer Centre), […]
(§6) kind gift from Rodger Tiedemann, Princess Margaret Cancer Centre) and 50000 (CAL851, kind gift from Mathieu Lupien, Princess Margaret Cancer Centre) and were treated at increasing concentrations of compounds ranging from 0.01 μM to 30 μM and assessed for proliferation using CelltiterGlo (Promega) following manufacturer’s instructions, as readout on days 3 and 6 as indicated. All cell lines were mycoplasma negative, as determined by MycoAlert™ Mycoplasma Detection Kit(Lonza). […]

MDA-MB-436 = experiment: CelltiterGlo viability cell assay; assay type: cell-based
Description: as §1, §2, §3, §4, §5, §6

SMILES: COc1cc(OC)cc(-c2noc(N3CCN(C)C4(CCN(c5ccccc5)CC4)C3)n2)c1 [MRK-740N]
- viability Average (HCC1143; 0.03 uM): 106.15
- viability Replicate 1 (HCC1143; 0.03 uM): 104.58
- viability Replicate 2 (HCC1143; 0.03 uM): 106.98
- viability Replicate 3 (HCC1143; 0.03 uM): 106.88
- viability Average (HCC1143; 0.1 uM): 106.29
- viability Replicate 1 (HCC1143; 0.1 uM): 110.44
- viability Replicate 2 (HCC1143; 0.1 uM): 106.94
- viability Replicate 3 (HCC1143; 0.1 uM): 101.48
- viability Average (HCC1143; 0.3 uM): 109.27
- viability Replicate 1 (HCC1143; 0.3 uM): 115.47
- viability Replicate 2 (HCC1143; 0.3 uM): 108.44
- viability Replicate 3 (HCC1143; 0.3 uM): 103.89
- viability Average (HCC1143; 1 uM): 112.12
- viability Replicate 1 (HCC1143; 1 uM): 119.58
- viability Replicate 2 (HCC1143; 1 uM): 108.44
- viability Replicate 3 (HCC1143; 1 uM): 108.34
- viability Average (HCC1143; 3 uM): 118.66
- viability Replicate 1 (HCC1143; 3 uM): 128.58
- viability Replicate 2 (HCC1143; 3 uM): 111.85
- viability Replicate 3 (HCC1143; 3 uM): 115.55
- viability Average (HCC1143; 9.5 uM): 112.33
- viability Replicate 1 (HCC1143; 9.5 uM): 117.62
- viability Replicate 2 (HCC1143; 9.5 uM): 107.90
- viability Replicate 3 (HCC1143; 9.5 uM): 111.46
- viability Average (HCC1143; 30 uM): 53.32
- viability Replicate 1 (HCC1143; 30 uM): 56.13
- viability Replicate 2 (HCC1143; 30 uM): 63.79
- viability Replicate 3 (HCC1143; 30 uM): 40.04
- viability Average (MDA-MB-436; MDA MB436, 3 day, 0.01 uM): 104.47
- viability Replicate 1 (MDA-MB-436; MDA MB436, 3 day, 0.01 uM): 104.85
- viability Replicate 2 (MDA-MB-436; MDA MB436, 3 day, 0.01 uM): 108.92
- viability Replicate 3 (MDA-MB-436; MDA MB436, 3 day, 0.01 uM): 99.63
- viability Average (MDA-MB-436; MDA MB436, 3 day, 0.03 uM): 103.60
- viability Replicate 1 (MDA-MB-436; MDA MB436, 3 day, 0.03 uM): 101.98
- viability Replicate 2 (MDA-MB-436; MDA MB436, 3 day, 0.03 uM): 106.92
- viability Replicate 3 (MDA-MB-436; MDA MB436, 3 day, 0.03 uM): 101.91
- viability Average (MDA-MB-436; MDA MB436, 3 day, 0.1 uM): 104.90
- viability Replicate 1 (MDA-MB-436; MDA MB436, 3 day, 0.1 uM): 108.03
- viability Replicate 2 (MDA-MB-436; MDA MB436, 3 day, 0.1 uM): 99.50
- viability Replicate 3 (MDA-MB-436; MDA MB436, 3 day, 0.1 uM): 107.16
- viability Average (MDA-MB-436; MDA MB436, 3 day, 0.3 uM): 109.23
- viability Replicate 1 (MDA-MB-436; MDA MB436, 3 day, 0.3 uM): 113.13
- viability Replicate 2 (MDA-MB-436; MDA MB436, 3 day, 0.3 uM): 103.55
- viability Replicate 3 (MDA-MB-436; MDA MB436, 3 day, 0.3 uM): 111.02
- viability Average (MDA-MB-436; MDA MB436, 3 day, 1 uM): 109.50
- viability Replicate 1 (MDA-MB-436; MDA MB436, 3 day, 1 uM): 114.19
- viability Replicate 2 (MDA-MB-436; MDA MB436, 3 day, 1 uM): 107.46
- viability Replicate 3 (MDA-MB-436; MDA MB436, 3 day, 1 uM): 106.85
- viability Average (MDA-MB-436; MDA MB436, 3 day, 3 uM): 108.81
- viability Replicate 1 (MDA-MB-436; MDA MB436, 3 day, 3 uM): 105.69
- viability Replicate 2 (MDA-MB-436; MDA MB436, 3 day, 3 uM): 108.01
- viability Replicate 3 (MDA-MB-436; MDA MB436, 3 day, 3 uM): 112.73
- viability Average (MDA-MB-436; MDA MB436, 3 day, 9.5 uM): 105.69
- viability Replicate 1 (MDA-MB-436; MDA MB436, 3 day, 9.5 uM): 111.14
- viability Replicate 2 (MDA-MB-436; MDA MB436, 3 day, 9.5 uM): 101.16
- viability Replicate 3 (MDA-MB-436; MDA MB436, 3 day, 9.5 uM): 104.77
- viability Average (MDA-MB-436; MDA MB436, 3 day, 30 uM): 65.33
- viability Replicate 1 (MDA-MB-436; MDA MB436, 3 day, 30 uM): 67.81
- viability Replicate 2 (MDA-MB-436; MDA MB436, 3 day, 30 uM): 62.64
- viability Replicate 3 (MDA-MB-436; MDA MB436, 3 day, 30 uM): 65.53
- viability Average (MDA-MB-436; MDA MB436, 6 day, 0.01 uM): 103.60
- viability Replicate 1 (MDA-MB-436; MDA MB436, 6 day, 0.01 uM): 113.45
- viability Replicate 2 (MDA-MB-436; MDA MB436, 6 day, 0.01 uM): 100.02
- viability Replicate 3 (MDA-MB-436; MDA MB436, 6 day, 0.01 uM): 97.33
- viability Average (MDA-MB-436; MDA MB436, 6 day, 0.03 uM): 104.88
- viability Replicate 1 (MDA-MB-436; MDA MB436, 6 day, 0.03 uM): 112.01
- viability Replicate 2 (MDA-MB-436; MDA MB436, 6 day, 0.03 uM): 99.73
- viability Replicate 3 (MDA-MB-436; MDA MB436, 6 day, 0.03 uM): 102.91
- viability Average (MDA-MB-436; MDA MB436, 6 day, 0.1 uM): 102.74
- viability Replicate 1 (MDA-MB-436; MDA MB436, 6 day, 0.1 uM): 107.88
- viability Replicate 2 (MDA-MB-436; MDA MB436, 6 day, 0.1 uM): 92.08
- viability Replicate 3 (MDA-MB-436; MDA MB436, 6 day, 0.1 uM): 108.25
- viability Average (MDA-MB-436; MDA MB436, 6 day, 0.3 uM): 105.71
- viability Replicate 1 (MDA-MB-436; MDA MB436, 6 day, 0.3 uM): 111.04
- viability Replicate 2 (MDA-MB-436; MDA MB436, 6 day, 0.3 uM): 94.90
- viability Replicate 3 (MDA-MB-436; MDA MB436, 6 day, 0.3 uM): 111.19
- viability Average (MDA-MB-436; MDA MB436, 6 day, 1 uM): 105.76
- viability Replicate 1 (MDA-MB-436; MDA MB436, 6 day, 1 uM): 115.22
- viability Replicate 2 (MDA-MB-436; MDA MB436, 6 day, 1 uM): 95.99
- viability Replicate 3 (MDA-MB-436; MDA MB436, 6 day, 1 uM): 106.08
- viability Average (MDA-MB-436; MDA MB436, 6 day, 3 uM): 103.68
- viability Replicate 1 (MDA-MB-436; MDA MB436, 6 day, 3 uM): 104.50
- viability Replicate 2 (MDA-MB-436; MDA MB436, 6 day, 3 uM): 94.30
- viability Replicate 3 (MDA-MB-436; MDA MB436, 6 day, 3 uM): 112.23
- viability Average (MDA-MB-436; MDA MB436, 6 day, 9.5 uM): 88.40
- viability Replicate 1 (MDA-MB-436; MDA MB436, 6 day, 9.5 uM): 98.62
- viability Replicate 2 (MDA-MB-436; MDA MB436, 6 day, 9.5 uM): 74.13
- viability Replicate 3 (MDA-MB-436; MDA MB436, 6 day, 9.5 uM): 92.44
- viability Average (MDA-MB-436; MDA MB436, 6 day, 30 uM): 37.17
- viability Replicate 1 (MDA-MB-436; MDA MB436, 6 day, 30 uM): 41.30
- viability Replicate 2 (MDA-MB-436; MDA MB436, 6 day, 30 uM): 30.92
- viability Replicate 3 (MDA-MB-436; MDA MB436, 6 day, 30 uM): 39.29
